Among the data in patent publication EP4707263A1, “FLUORINATING AGENT AND FLUORINATION METHOD” (Daikin Industries, Ltd., priority 2024, dated 2025) are pKa values, retold here.

This series is described as follows: pKa (acid dissociation constant) determined by neutralization titration. The series is classed as physicochemical. The conditions noted are these: acid dissociation constant at 25°C in water.

One may read the pKa as the negative logarithm of the acid dissociation constant. Consider `CO` [Base B-2, KOMe], for which the pKa came out at 16.
